Like-named read-outs stand apart in the source and are kept apart here.
Legend:
TGase = TGase (Cavia porcellus, UniProt P08587); type: biochemical; settings: level with DMSO control designated as 100
Experimental: An enzyme reaction solution (0.1 ml) (100 mM HEPES-NaOH, pH 7.5, 1 mM CaCl2, 20 μM monodansyl cadaverine, 0.05 mg/ml N,N-dimethylcasein, 5 μg/ml TGase) was introduced into wells of a 96-well plate (Nunc, 96 Well Black Plate with Clear Bottom). A test compound was added in concentrations of 0.3, 1.0, 3.0, 10, and 30 μM. The solution and the compound were sufficiently mixed while preventing foaming. The plate was set in the fluorescence drug screening system FDSS 3000 (Hamamatsu Photonics K.K.). TGase-inhibiting activity of the compound was calculated by assaying changes in fluorescence wavelength (at 340 nm) per unit time. […] The assay level at which TGase activity decreased by half in the presence of the test compound was designated as TG 50.
Hereafter, the numerals in parentheses written after the TG level, the SOCE level, and the IICR level correspond to the test compound concentrations. The number following the name of each title compound used in the Examples below represents a compound ID number designated arbitrarily by the present inventors.

[1] = system: SOCE (store operated calcium entry) in CHO cells; test: Assay of SOCE (store operated calcium entry)-inhibiting action; type: cell-based, Chinese hamster; settings: CHO cells, thapsigargin
Outline: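 CHO cells in calcium-free BSS received compound, then 1 μM thapsigargin 2 min later to deplete stores; after 9 min, 2 mM calcium chloride (final) added. Percent inhibition of the rise in intracellular calcium determined at various compound concentrations.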

[2] = system: IICR (IP3 induced calcium release) in CHO cells; test: Assay of IICR (IP3 induced calcium release)-inhibiting action; type: cell-based, Chinese hamster; settings: CHO cells, 10 μM ATP
Outline: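 Inhibition (%) of the intracellular calcium increase triggered by 10 μM ATP, measured in CHO cells in BSS with calcium. Compound given 1 min after the buffer exchange and 2 min before ATP; values reported per compound concentration.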

In the case of `O=C(CCNCCSSCCNCCC(=O)c1cccs1)c1cccs1` [Example 369], the TG level (TGase; test compound 3 μmol) is reported as 95.1, the TG level (TGase; test compound 30 μmol) is reported as −64.9 and the “SOCE level (percentage of inhibition)” value ([1]; test compound 10 μmol) is reported as 20%. The “SOCE level (percentage of inhibition)” value ([1]; test compound 30 μmol) was 40%, the “SOCE level (percentage of inhibition)” value ([1]; test compound 100 μmol) was 50% and the “IICR level (percentage of inhibition)” value ([2]; test compound 10 μmol) was 0%. For the same compound, the “IICR level (percentage of inhibition)” value ([2]; test compound 30 μmol) was 0% and the “IICR level (percentage of inhibition)” value ([2]; test compound 100 μmol) was 70%.
In the case of “2-bis(N-2-hydroxyethyl)aminoethylferrocenylketone [Example 288]”, the TG level (TGase; test compound 3 μmol) is reported as 94.9, the TG level (TGase; test compound 30 μmol) is reported as 44.1 and the “SOCE level (percentage of inhibition)” value ([1]; test compound 30 μmol) is reported as 10%. The “SOCE level (percentage of inhibition)” value ([1]; test compound 100 μmol) was 40%, the “IICR level (percentage of inhibition)” value ([2]; test compound 10 μmol) was 40% and the “IICR level (percentage of inhibition)” value ([2]; test compound 30 μmol) was 50%. The “IICR level (percentage of inhibition)” value ([2]; test compound 100 μmol) was 60%.
`O=C(CCNCCSSCCNCCC(=O)c1ccsc1)c1ccsc1` [Example 380] was tested, and the TG level (TGase; test compound 3 μmol) was 25, the TG level (TGase; test compound 30 μmol) was 4.2 and the “SOCE level (percentage of inhibition)” value ([1]; test compound 10 μmol) was 4%. For the same compound, the “SOCE level (percentage of inhibition)” value ([1]; test compound 30 μmol) was 31%, the “SOCE level (percentage of inhibition)” value ([1]; test compound 100 μmol) was 70% and the “IICR level (percentage of inhibition)” value ([2]; test compound 10 μmol) was 10%. For the same compound, the “IICR level (percentage of inhibition)” value ([2]; test compound 30 μmol) was 76% and the “IICR level (percentage of inhibition)” value ([2]; test compound 100 μmol) was 81%.
With `O=C(CCNCCSSCCNCCC(=O)c1ccc2ccccc2c1)c1ccc2ccccc2c1` [Example 370] the TG level (TGase; test compound 3 μmol) was 36, the TG level (TGase; test compound 30 μmol) was 1.6 and the “SOCE level (percentage of inhibition)” value ([1]; test compound 10 μmol) was 0%. For the same compound, the “SOCE level (percentage of inhibition)” value ([1]; test compound 30 μmol) was 0%, the “SOCE level (percentage of inhibition)” value ([1]; test compound 100 μmol) was 3% and the “IICR level (percentage of inhibition)” value ([2]; test compound 10 μmol) was 0%. For the same compound, the “IICR level (percentage of inhibition)” value ([2]; test compound 30 μmol) was 0% and the “IICR level (percentage of inhibition)” value ([2]; test compound 100 μmol) was 29%.
“2-(N-isopropylbenzyl)aminoethyl-1-methyl-2-pyrrylketone [Example 195]” was tested, and the TG level (TGase; test compound 3 μmol) was 73, the TG level (TGase; test compound 10 μmol) was 62.6 and the TG level (TGase; test compound 30 μmol) was 6.4. For the same compound, the “SOCE level (percentage of inhibition)” value ([1]; test compound 10 μmol) was 0%, the “SOCE level (percentage of inhibition)” value ([1]; test compound 30 μmol) was 0% and the “SOCE level (percentage of inhibition)” value ([1]; test compound 100 μmol) was 10%. The “IICR level (percentage of inhibition)” value ([2]; test compound 10 μmol) was 0%, the “IICR level (percentage of inhibition)” value ([2]; test compound 30 μmol) was 0% and the “IICR level (percentage of inhibition)” value ([2]; test compound 100 μmol) was 0%.
“2-(N-isopropylbenzyl)aminoethylferrocenylketone [Example 286]” was tested, and the TG level (TGase; test compound 3 μmol) was 99.2, the TG level (TGase; test compound 30 μmol) was 54.2 and the “SOCE level (percentage of inhibition)” value ([1]; test compound 30 μmol) was 0%. For the same compound, the “SOCE level (percentage of inhibition)” value ([1]; test compound 100 μmol) was 0%, the “IICR level (percentage of inhibition)” value ([2]; test compound 10 μmol) was 50% and the “IICR level (percentage of inhibition)” value ([2]; test compound 30 μmol) was 80%. The “IICR level (percentage of inhibition)” value ([2]; test compound 100 μmol) was 50%.
Compound “N,N-bis(2-(4-bromobenzoyl)ethyl)cystinemethylester [Example 392]” has a TG level (TGase; test compound 3 μmol) of 25, a TG level (TGase; test compound 10 μmol) of 3.7 and a TG level (TGase; test compound 30 μmol) of 2.3. The “SOCE level (percentage of inhibition)” value ([1]; test compound 10 μmol) was 20%, the “SOCE level (percentage of inhibition)” value ([1]; test compound 30 μmol) was 40% and the “SOCE level (percentage of inhibition)” value ([1]; test compound 100 μmol) was 50%. For the same compound, the “IICR level (percentage of inhibition)” value ([2]; test compound 10 μmol) was 58%, the “IICR level (percentage of inhibition)” value ([2]; test compound 30 μmol) was 61% and the “IICR level (percentage of inhibition)” value ([2]; test compound 100 μmol) was 76%.
Work on `O=C(CCNCCSSCCNCCC(=O)c1ccc(Br)s1)c1ccc(Br)s1` [Example 340] yielded a TG level (TGase; test compound 3 μmol) of 0.8, a TG level (TGase; test compound 10 μmol) of 2.5 and a TG level (TGase; test compound 30 μmol) of 4.3. The “SOCE level (percentage of inhibition)” value ([1]; test compound 10 μmol) was 0%, the “SOCE level (percentage of inhibition)” value ([1]; test compound 30 μmol) was 18% and the “SOCE level (percentage of inhibition)” value ([1]; test compound 100 μmol) was 65%. The “IICR level (percentage of inhibition)” value ([2]; test compound 10 μmol) was 0%, the “IICR level (percentage of inhibition)” value ([2]; test compound 30 μmol) was 40% and the “IICR level (percentage of inhibition)” value ([2]; test compound 100 μmol) was 60%.
In the case of “N,N-bis(2-(5-bromo-2-thiophenoyl)ethyl)cystinemethylester [Example 386]”, the TG level (TGase; test compound 3 μmol) is reported as 4.6, the TG level (TGase; test compound 10 μmol) is reported as 2.9 and the TG level (TGase; test compound 30 μmol) is reported as 14. The “SOCE level (percentage of inhibition)” value ([1]; test compound 10 μmol) was 20%, the “SOCE level (percentage of inhibition)” value ([1]; test compound 30 μmol) was 40% and the “SOCE level (percentage of inhibition)” value ([1]; test compound 100 μmol) was 50%. The “IICR level (percentage of inhibition)” value ([2]; test compound 10 μmol) was 44%, the “IICR level (percentage of inhibition)” value ([2]; test compound 30 μmol) was 72% and the “IICR level (percentage of inhibition)” value ([2]; test compound 100 μmol) was 77%.
With “2-(N-isopropyl-2-hydroxyethyl)aminoethylferrocenylketone [Example 287]” the TG level (TGase; test compound 3 μmol) was 100, the TG level (TGase; test compound 30 μmol) was 60.8 and the “SOCE level (percentage of inhibition)” value ([1]; test compound 30 μmol) was 0%. The “SOCE level (percentage of inhibition)” value ([1]; test compound 100 μmol) was 10%, the “IICR level (percentage of inhibition)” value ([2]; test compound 10 μmol) was 20% and the “IICR level (percentage of inhibition)” value ([2]; test compound 30 μmol) was 40%. The “IICR level (percentage of inhibition)” value ([2]; test compound 100 μmol) was 40%.
In the case of `O=C(CCNCCSSCCNCCC(=O)c1ccco1)c1ccco1` [Example 372], the TG level (TGase; test compound 3 μmol) is reported as 13, the TG level (TGase; test compound 30 μmol) is reported as −1.5 and the “SOCE level (percentage of inhibition)” value ([1]; test compound 10 μmol) is reported as 0%. The “SOCE level (percentage of inhibition)” value ([1]; test compound 30 μmol) was 0%, the “SOCE level (percentage of inhibition)” value ([1]; test compound 100 μmol) was 15% and the “IICR level (percentage of inhibition)” value ([2]; test compound 10 μmol) was 0%. The “IICR level (percentage of inhibition)” value ([2]; test compound 30 μmol) was 54% and the “IICR level (percentage of inhibition)” value ([2]; test compound 100 μmol) was 58%.

Reference: patent US8937091B2 (Japan Science and Technology Agency, priority 2009, dated 2015)
